# Where two headings read alike, the source gives them in different places.
# Columns and labels:
# [1] = system: HL-60 promyelocytic leukemia cells; assay: Inhibition of proliferation of HL-60 cells; assay type: cell-based; settings: Homo sapiens, HL-60, 192 h, 8 days; for inhibition at 0.001 µM: 0.1 × 10^-8 M; for inhibition at 0.01 µM: 1 × 10^-8 M; for inhibition at 0.1 µM: 10 × 10^-8 M; for IC50: from dose response curves, read-out: ID50 (concentration which reduced the cell number by 50%)
# Description: (§1) Inhibition of Cell Proliferation and Induction of Cell Differentiation
# (§2) Cultures of HL-60 promyelocytic leukemia cells were established in the absence (control) and presence of various concentrations of test compounds. After an 8-day incubation period, the cultures were evaluated for proliferation of tumor cells, cell viability, and cellular differentiation. Proliferation was assessed by directly enumerating the increased number of tumor cells resulting from cell division during incubation. Viability was assessed by dye exclusion technique to learn whether any of the compounds were lethal to the cultured HL-60 cells. Cellular differentiation was evaluated by determining the number of cells which had acquired the enzymes necessary to support a respiratory burst, a characteristic of mature macrophages and granulocytes.
# (§3) Tissue culture medium used in these experiments was RPMI-1640 supplemented to 10% v/v with heat-inactivated fetal bovine serum and to an additional 1.6 mM with L-glutamine.
# (§4) Test compounds were dissolved in sufficient ethanol to yield stock solutions of 1×10^-2 or 1×10^-3 molar. Reduced lighting was used when working with compounds and stock solutions were stored in the dark at -20° C. in an argon atmosphere. Compounds were diluted in tissue culture medium and added to flasks containing HL-60 cells to achieve the final concentration described in each test.
# (§5) The HL-60 tumor cell line was originally derived from a patient with promyelocytic leukemia and was obtained from the American Type Culture Collection. The cells were maintained in liquid culture by serial passage twice weekly in tissue culture medium. […] In any test, three replicate flasks were incubated without compound (control) or in the presence of varying concentrations of test compound. Ethanol, used as the vehicle, was kept constant in all dilutions in each test and had no effect on cell proliferation, viability or cell differentiation at the concentrations used (≤0.1%). After 8 days of incubation at 37° in a humidified atmosphere of 5% CO2 in air, cultures were evaluated for tumor cell proliferation, viability and differentiation.
# Quantitation of proliferation was done by enumerating the number of HL-60 cells in each individual flask (3 flasks per experimental point) using an Elzone electronic particle counter. Results are shown as the percent reduction of cell number calculated for each concentration tested according to the formula: [formula] The results are also expressed as the concentration which reduced the cell number by 50% (ID50).
# [2] = system: bone calcium mobilization; assay: Bone Calcium Mobilization in Rat (plasma Ca increase); assay type: in vivo; settings: intrajugular, 18 h
# Description: Controls received carrier alone. Bone Ca resorption (BCR) was estimated by measuring the blood Ca increase in the treated rats. Blood was collected in heparinized tubes and centrifuged. The resulting plasma was measured for calcium concentration by atomic absorption spectroscopy. Since rats were fed a diet essentially devoid of Ca, plasma Ca increases reflected mobilization of Ca from bone, not intestinal Ca absorption.
# [3] = system: HL-60 promyelocytic leukemia cells; assay: Induction of differentiation of HL-60 cells (NBT reduction); assay type: cell-based, human; settings: 8 days; for EC50: Homo sapiens, HL-60, 192 h, from dose response curves, read-out: ED50 (concentration which induced differentiation of 50% of the cells)
# Description: as §1, §2, §3, §4, §5
# Quantitation of differentiated cells was done by the biochemical method of nitroblue tetrazolum (NBT) reduction. One million HL-60 cells were pooled from replicate cultures, centrifuged at 220×g for 10 minutes, and resuspended in 1 ml of Ca^++ -Mg^++ -deficient phosphate buffered saline prepared by supplementing Ca^++ -Mg^++ -free phosphate buffered saline (PBS) to 20% v/v with heat-inactivated fetal bovine serum). Nitroblue tetrazolium was dissolved at 0.5 mg per ml in Ca^++ -Mg^++ -free PBS with gentle heating and frequent mixing. A stock solution of 1 mg tetradecanoyl phorbol acetate (TPA) per ml in ethanol, stored at -20°, was diluted 100-fold with Ca^++ -Mg^++ -free PBS to prepare a working solution. The test was done by adding 1 ml of NBT solution and 0.02 ml of the working TPA solution to the HL-60 cells. After mixing, the tubes were incubated in a 37° water bath for 25 minutes then transferred to ice. Undifferentiated and differentiated cells present in any sample were determined microscopically by surveying a minimum of 300 cells per sample. Cells without pigmented granules (clear cells) were judged to be undifferentiated while those containing greater than 3 blue-black formazan granules were scored as differentiated. Generally, differentiated cells were intensely pigmented clearly indicating the enzymatic conversion of NBT to formazan. Results are expressed as the percentage of differentiated cells present in any sample as calculated according to the formula: [formula] The results are also expressed as the concentration of compound which induced differentiation of 50% of the cells (ED50).
# [4] = system: intestinal calcium absorption (duodenum); assay: Stimulation of Intestinal Calcium Absorption in Rat (intestinal 45Ca transport, everted gut sac); settings: intrajugular, 18 h
# vitamin D deficient rats = settings: 3 weeks
# [5] = read-out: % Reduction in cell number
Compound,"inhibition at 0.001 µM [1, 5] [%]","inhibition at 0.01 µM [1, 5] [%]","inhibition at 0.1 µM [1, 5] [%]",IC50 [1] [nM],"% of 1,25-(OH)2 D3 Effect in Rat, bone calcium mobilization ([2]; 15.5 ng/rat) [%]",% Differentiated cells ([3]; 0.1 × 10^-8 M) [%],% Differentiated cells ([3]; 1 × 10^-8 M) [%],% Differentiated cells ([3]; 10 × 10^-8 M) [%],EC50 [3] [nM],"% of 1,25-(OH)2 D3 Effect in Rat, intestinal calcium absorption ([4]; 15.5 ng/rat) [%]","inhibition at 0.0001 µM ([1]; 0.01 × 10^-8 M, read-out: % Reduction in cell number) [%]","% of 1,25-(OH)2 D3 Effect in Rat, bone calcium mobilization ([2]; 12.5 ng/rat) [%]",% Differentiated cells ([3]; 0.01 × 10^-8 M) [%],"% of 1,25-(OH)2 D3 Effect in Rat, intestinal calcium absorption ([4]; 12.5 ng/rat) [%]",Bone Mass (vitamin D deficient rats; daily dose 18 ng) [mm^3 /cm^3],Serum Ca^2+ (vitamin D deficient rats; daily dose 18 ng) [mg/dL],Serum PO4^2- (vitamin D deficient rats; daily dose 18 ng) [mg/dL],Bone Mass (vitamin D deficient rats; daily dose 72 ng),Serum Ca^2+ (vitamin D deficient rats; daily dose 72 ng) [mg/dL],Serum PO4^2- (vitamin D deficient rats; daily dose 72 ng) [mg/dL]
"C=C1/C(=C\C=C2/CCC[C@]3(C)[C@@H]([C@H](C)CC#CC(C)(C)O)CC[C@@H]23)C[C@@H](O)C[C@@H]1O [Compound A, 1α,25-dihydroxy-23-yne-cholecalciferol]",30,67,85,6,15,15,54,98,9,95,,,,,,,,,,
C=C1/C(=C\C=C2/CCC[C@]3(C)[C@@H]([C@H](C)CC#CC(O)(C(F)(F)F)C(F)(F)F)CC[C@@H]23)C[C@@H](O)C[C@@H]1O [Compound B],31,85,89,2,,29,95,98,2,,15,0,13,124,385 ± 77,15.63 ± 0.36,7.66 ± 0.17,746 + 48 mm^3 /cm^3,15.23 ± 0.22,6.34 ± 0.26
